Results from PMC9378659, “Design and synthesis of new N-thioacylated ciprofloxacin derivatives as urease inhibitors with potential antibacterial activity” (Scientific Reports, 2022).
In brackets after ≈: the same amount, converted by molar mass. Where two headings read alike, the source gives them in different places.

How the values were obtained:
[1] = biological target: T1, jack bean urease (JBU; EC 3.5.1.5) (Canavalia ensiformis, UniProt P07374); assay: biochemical; conditions: JB urease, mean ± SEM, at least three experiments
T1 construct: purchased Sigma-Aldrich
Description: All chemicals and jack bean urease (JBU; EC 3.5.1.5) were purchased from Sigma-Aldrich. The urease inhibitory activity of N-thioacylated ciprofloxacin derivatives 3a–n was determined by Berthelot colorimetric method. The ammonia (NH3) produced by the urease enzyme along with indicator solutions including hypochlorite (OCl^−) and phenol make a blue-colored indophenol complex and the absorbance was measured at 625 nm by a Synergy H1 Hybrid multimode microplate reader (BioTek, Winooski, VT, USA).
Assay completed in two steps, at the first step the enzyme cocktail for each compound consisted of 50 µl urease enzyme (3 mg/ml in phosphate buffer, pH 7.4), 100 µl of test compound at different concentrations (0–10 mg/ml, in phosphate buffer, pH 7.4) and 850 µl urea solution (30 mM, in phosphate buffer, pH 7.4). This mixture was incubated at 37 °C for 30 min.
For the second step, each 100 µl of the above mixture was added to 500 µl of indicator solutions A (0.5 g phenol and 25 mg sodium nitroprusside in 500 ml distilled water) and 500 µl of B (2.5 g sodium hydroxide and 4.2 ml sodium hypochlorite (5%) in 500 ml distilled water) and further incubated at 37 °C for 30 min. The absorbance of blue-colored indophenol of each cell is related to the percentage of enzyme inhibition using the following equation: I%=1-T/C×100.
In this equation, I (%) is assigned to the percent of enzyme inhibition. (T) is assigned to the absorbance of our test compounds and C is assigned to the negative control absorbance which is the absorbance of our cocktail without any inhibitor compound. Thiourea and hydroxyurea were used as the positive controls. The IC50 values of test compounds were calculated using GraphPad PRISM 8.0 software (GraphPad, San Diego, CA, USA).

[2] = test system: jack bean urease; set-up: method as in PMID 28574649; conditions: read-out: IC50 against urease; cited from earlier work
[3] = test system: urease; set-up: method as in PMID 34179623; conditions: read-out: IC50 against urease; cited from earlier work
[4] = test system: Escherichia coli ATCC 8739; assay: Antibacterial activity, agar dilution MIC; format: cell-based; conditions: ATCC8739
Description: (§1) Antibacterial activity of the synthesized compounds 3a–n were determined according to the agar dilution methods for Gram-positive bacteria strains (Staphylococcus aureus ATCC 6538 and Staphylococcus epidermidis ATCC 12228) and Gram-negative bacteria strains (Escherichia coli ATCC 8739 and Pseudomonas aeruginosa ATCC 9027).
(§2) Two Gram-positive bacteria strains (Staphylococcus aureus ATCC 6538 and Staphylococcus epidermidis ATCC 12228) and two Gram-negative bacteria strains (Escherichia coli ATCC 8739 and Pseudomonas aeruginosa ATCC 9027) were used for evaluation of the synthesized N-thioacylated ciprofloxacin derivatives 3a–n. All the strains were obtained from Iranian Microbial Collection (Pasteur Institute of Iran, Tehran, Iran). The antibacterial activity of the synthesized compounds was determined according to the agar dilution methods of the National Committee for Clinical Laboratory Standards[43].
(§3) Briefly, a series of twofold dilutions of test compounds 3a–n and ciprofloxacin, the standard antibiotic, were dissolved in 1 ml of DMSO. Each concentration was added to molten test agars that have been allowed to equilibrate in a water bath to 55 °C, to attain the concentrations ranging from 100 to 0.003 µg/ml. To compare the MIC values; the standard antibiotic, ciprofloxacin was also diluted in the same manner.
(§4) To prepare the inoculums suspensions, the bacteria were cultured on Muller-Hinton agar 12–16 h before the test. On the day of the experiment, a single colony of each bacteria was suspended Muller–Hinton broth to reach the turbidity of 0.5 McFarland standard (0.08–0.1 absorbance at 600 nm), which is approximately equivalent to 1.5 × 10^8 CFU/ml. The suspensions were then diluted at 1:10 in sterile saline to obtain a concentration of 1.5 × 10^7 CFU/ml. The plates were dot inoculated with 2 ul of each bacterial suspension and incubated at 37 °C overnight. The MIC was also defined as the lowest concentration of test compounds that completely prevents the growth of bacteria on agar plate following overnight incubation.

[5] = test system: Pseudomonas aeruginosa ATCC 9027; assay: Antibacterial activity, agar dilution MIC; format: cell-based; conditions: ATCC9027, read-out: MIC P. aeruginosa
Description: as §1, §2, §3, §4

[6] = test system: Staphylococcus aureus ATCC 6538; assay: Antibacterial activity, agar dilution MIC; format: cell-based; conditions: ATCC6538, read-out: MIC S. aureus
Description: as §1, §2, §3, §4

[7] = test system: Staphylococcus epidermidis ATCC 12228; assay: Antibacterial activity, agar dilution MIC; format: cell-based; conditions: ATCC12228, read-out: MIC S. epidermidis
Description: as §1, §2, §3, §4

[8] = test system: C. neoformans (H99); assay: Anti-ureolytic assay, colorimetric microdilution in urea broth; format: cell-based; conditions: Cryptococcus neoformans, urea broth pH 6
Description: (§5) The colorimetric microdilution technique using urea broth media (Merck, supplemented with glucose; pH 6 for C. neoformans) was used to determine the ureolytic activity of C. neoformans (H99), and clinical isolate of P. vulgaris treated with 3n according to previously reported procedures[18],[37].

[9] = test system: clinical isolate of P. vulgaris; assay: as above; format: cell-based; conditions: Proteus vulgaris
Description: as §5

[10] = read-out: IC50 urease inhibitory activity
[11] = IC50 urease inhibitory activity

T1 sequence (P07374 whole entry, looked up): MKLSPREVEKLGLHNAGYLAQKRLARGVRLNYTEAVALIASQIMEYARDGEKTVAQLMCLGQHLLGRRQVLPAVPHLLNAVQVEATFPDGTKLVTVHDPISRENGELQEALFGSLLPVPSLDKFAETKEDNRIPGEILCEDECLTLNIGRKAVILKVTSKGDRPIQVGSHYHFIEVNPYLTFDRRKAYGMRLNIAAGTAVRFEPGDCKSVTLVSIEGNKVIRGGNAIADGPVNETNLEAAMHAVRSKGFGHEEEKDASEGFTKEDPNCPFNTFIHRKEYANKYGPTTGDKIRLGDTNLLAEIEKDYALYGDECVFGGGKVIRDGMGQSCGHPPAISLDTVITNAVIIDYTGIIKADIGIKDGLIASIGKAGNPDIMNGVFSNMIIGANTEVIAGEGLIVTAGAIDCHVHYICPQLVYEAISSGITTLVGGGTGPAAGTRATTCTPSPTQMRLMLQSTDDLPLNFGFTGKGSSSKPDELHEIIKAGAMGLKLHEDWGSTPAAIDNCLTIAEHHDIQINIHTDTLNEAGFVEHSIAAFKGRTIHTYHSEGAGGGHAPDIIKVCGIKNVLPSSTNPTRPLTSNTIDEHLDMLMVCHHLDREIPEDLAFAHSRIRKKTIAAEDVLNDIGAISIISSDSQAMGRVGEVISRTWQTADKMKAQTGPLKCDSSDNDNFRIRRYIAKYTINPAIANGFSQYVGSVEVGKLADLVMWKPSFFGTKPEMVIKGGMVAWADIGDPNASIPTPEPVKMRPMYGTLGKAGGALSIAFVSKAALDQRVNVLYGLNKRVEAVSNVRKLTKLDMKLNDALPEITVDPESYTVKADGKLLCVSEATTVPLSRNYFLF

SMILES	IC50 [1, 10]	IC50 [2]	IC50 [3]	IC50 [1, 11]	MIC [4]	MIC [5]	MIC [6]	MIC [7]	melting point	IC50 [8]	IC50 [9]
NC(N)=S [Thiourea]	23 ± 0.84 µM	4720 ± 174 nM	21.7 ± 0.34 µM	–	–	–	–	–	–	–	–
O=C(O)c1cn(C2CC2)c2cc(N3CCN(C(=S)c4cccc(Cl)c4)CC3)c(F)cc2c1=O [Compound 3m, 7-(4-(3-Chlorophenylcarbonothioyl)piperazin-1-yl)-1-cyclopropyl-6-fluoro-4-oxo-1,4-dihydroquinoline-3-carboxylic acid]	–	–	–	12.2 ± 0.24 µM	0.048 µg/mL (≈ 0.0988 µM)	6.25 µg/mL (≈ 12.9 µM)	0.048 µg/mL (≈ 0.0988 µM)	0.097 µg/mL (≈ 0.2 µM)	> 250 °C	–	–
O=C(O)c1cn(C2CC2)c2cc(N3CCNCC3)c(F)cc2c1=O [Ciprofloxacin]	–	–	–	–	< 0.003 µg/mL	0.048 µg/mL (≈ 0.145 µM)	0.024 µg/mL (≈ 0.0724 µM)	0.048 µg/mL (≈ 0.145 µM)	–	–	–
O=C(O)c1cn(C2CC2)c2cc(N3CCN(C(=S)c4cccc(Oc5ccccc5)c4)CC3)c(F)cc2c1=O [Compound 3k, 1-Cyclopropyl-6-fluoro-4-oxo-7-(4-(3-phenoxyphenylcarbonothioyl)piperazin-1-yl)-1,4-dihydroquinoline-3-carboxylic acid]	–	–	–	32.49 ± 0.32 µM	0.097 µg/mL (≈ 0.178 µM)	3.12 µg/mL (≈ 5.75 µM)	0.39 µg/mL (≈ 0.717 µM)	0.39 µg/mL (≈ 0.717 µM)	> 250 °C	–	–
O=C(O)c1cn(C2CC2)c2cc(N3CCN(C(=S)c4cccc(O)c4)CC3)c(F)cc2c1=O [Compound 3j, 1-Cyclopropyl-6-fluoro-7-(4-(3-hydroxyphenylcarbonothioyl)piperazin-1-yl)-4-oxo-1,4-dihydroquinoline-3-carboxylic acid]	–	–	–	19.6 ± 0.17 µM	0.024 µg/mL (≈ 0.0513 µM)	0.781 µg/mL (≈ 1.67 µM)	0.097 µg/mL (≈ 0.207 µM)	0.048 µg/mL (≈ 0.103 µM)	> 250 °C	–	–
COc1ccc(C(=S)N2CCN(c3cc4c(cc3F)c(=O)c(C(=O)O)cn4C3CC3)CC2)cc1 [Compound 3f, 1-Cyclopropyl-6-fluoro-7-(4-(4-methoxyphenylcarbonothioyl)piperazin-1-yl)-4-oxo-1,4-dihydroquinoline-3-carboxylic acid]	–	–	–	21.36 ± 0.08 µM	0.097 µg/mL (≈ 0.201 µM)	3.12 µg/mL (≈ 6.49 µM)	0.024 µg/mL (≈ 0.0498 µM)	0.024 µg/mL (≈ 0.0498 µM)	> 250 °C	–	–
NC(=O)NO [Hydroxyurea, reference compound]	100 ± 2.5 µM	–	–	–	–	–	–	–	–	–	–
O=C(O)c1cn(C2CC2)c2cc(N3CCN(C(=S)c4ccccc4)CC3)c(F)cc2c1=O [Compound 3a, 1-Cyclopropyl-6-fluoro-4-oxo-7-(4-(phenylcarbonothioyl)piperazin-1-yl)-1,4 dihydroquinoline-3-carboxylic acid]	–	–	–	10.61 ± 0.09 µM	0.048 µg/mL (≈ 0.106 µM)	6.25 µg/mL (≈ 13.8 µM)	0.048 µg/mL (≈ 0.106 µM)	0.024 µg/mL (≈ 0.0532 µM)	> 250 °C	–	–
O=C(O)c1cn(C2CC2)c2cc(N3CCN(C(=S)c4ccc(F)cc4)CC3)c(F)cc2c1=O [Compound 3d, 1-Cyclopropyl-6-fluoro-7-(4-(4-fluorophenylcarbonothioyl)piperazin-1-yl)-4-oxo-1,4-dihydroquinoline-3-carboxylic acid]	–	–	–	2.94 ± 0.04 µM	0.097 µg/mL (≈ 0.207 µM)	0.781 µg/mL (≈ 1.66 µM)	0.097 µg/mL (≈ 0.207 µM)	0.048 µg/mL (≈ 0.102 µM)	> 250 °C	–	–
COc1cccc(C(=S)N2CCN(c3cc4c(cc3F)c(=O)c(C(=O)O)cn4C3CC3)CC2)c1 [Compound 3b, 1-Cyclopropyl-6-fluoro-7-(4-(3-methoxyphenylcarbonothioyl)piperazin-1-yl)-4-oxo-1,4-dihydroquinoline-3-carboxylic acid]	–	–	–	17.02 ± 0.16 µM	0.097 µg/mL (≈ 0.201 µM)	3.12 µg/mL (≈ 6.49 µM)	0.048 µg/mL (≈ 0.0997 µM)	0.024 µg/mL (≈ 0.0498 µM)	> 250 °C	–	–
O=C(O)c1cn(C2CC2)c2cc(N3CCN(C(=S)c4ccccc4F)CC3)c(F)cc2c1=O [Compound 3i, 1-Cyclopropyl-6-fluoro-7-(4-(2-fluorophenylcarbonothioyl)piperazin-1-yl)-4-oxo-1,4-dihydroquinoline-3-carboxylic acid]	–	–	–	15 ± 0.16 µM	0.0195 µg/mL (≈ 0.0415 µM)	2.5 µg/mL (≈ 5.32 µM)	0.024 µg/mL (≈ 0.0511 µM)	0.024 µg/mL (≈ 0.0511 µM)	> 250 °C	–	–
Cc1ccc(C(=S)N2CCN(c3cc4c(cc3F)c(=O)c(C(=O)O)cn4C3CC3)CC2)cc1 [Compound 3c, 1-Cyclopropyl-6-fluoro-7-(4-(4-methylphenylcarbonothioyl)piperazin-1-yl)-4-oxo-1,4-dihydroquinoline-3-carboxylic acid]	–	–	–	20.63 ± 0.19 µM	0.097 µg/mL (≈ 0.208 µM)	3.12 µg/mL (≈ 6.71 µM)	0.048 µg/mL (≈ 0.103 µM)	0.024 µg/mL (≈ 0.0516 µM)	> 250 °C	–	–
O=C(O)c1cn(C2CC2)c2cc(N3CCN(C(=S)c4cccc(F)c4)CC3)c(F)cc2c1=O [Compound 3h, 1-Cyclopropyl-6-fluoro-7-(4-(3-fluorophenylcarbonothioyl)piperazin-1-yl)-4-oxo-1,4-dihydroquinoline-3-carboxylic acid]	–	–	–	4.08 ± 0.03 µM	< 0.003 µg/mL	0.048 µg/mL (≈ 0.102 µM)	0.048 µg/mL (≈ 0.102 µM)	0.097 µg/mL (≈ 0.207 µM)	–	–	–
O=C(O)c1cn(C2CC2)c2cc(N3CCN(C(=S)c4ccc(Br)cc4)CC3)c(F)cc2c1=O [Compound 3l, 7-(4-(4-Bromophenylcarbonothioyl)piperazin-1-yl)-1-cyclopropyl-6-fluoro-4-oxo-1,4-dihydroquinoline-3-carboxylic acid]	–	–	–	8.21 ± 0.06 µM	0.028 µg/mL (≈ 0.0528 µM)	0.848 µg/mL (≈ 1.6 µM)	0.048 µg/mL (≈ 0.0905 µM)	0.048 µg/mL (≈ 0.0905 µM)	> 250 °C	–	–
O=C(O)c1cn(C2CC2)c2cc(N3CCN(C(=S)c4cccc([N+](=O)[O-])c4)CC3)c(F)cc2c1=O [Compound 3g, 1-Cyclopropyl-6-fluoro-7-(4-(3-nitrophenylcarbonothioyl)piperazin-1-yl)-4-oxo-1,4-dihydroquinoline-3-carboxylic acid]	–	–	–	5.87 ± 0.07 µM	0.012 µg/mL (≈ 0.0242 µM)	0.39 µg/mL (≈ 0.785 µM)	0.024 µg/mL (≈ 0.0483 µM)	0.024 µg/mL (≈ 0.0483 µM)	–	–	–
O=C(O)c1cn(C2CC2)c2cc(N3CCN(C(=S)c4ccc(Cl)cc4)CC3)c(F)cc2c1=O [Compound 3e, 7-(4-(4-Chlorophenylcarbonothioyl)piperazin-1-yl)-1-cyclopropyl-6-fluoro-4-oxo-1,4-dihydroquinoline-3-carboxylic acid]	–	–	–	6.55 ± 0.05 µM	0.024 µg/mL (≈ 0.0494 µM)	0.781 µg/mL (≈ 1.61 µM)	0.048 µg/mL (≈ 0.0988 µM)	0.048 µg/mL (≈ 0.0988 µM)	> 250 °C	–	–
NC(=S)N1N=C(c2cc3ccccc3oc2=O)CC1c1ccccc1 (centres unmarked) [Compound D]	–	0.358 ± 0.017 nM	–	–	–	–	–	–	–	–	–
O=C(O)c1cn(C2CC2)c2cc(N3CCN(C(=S)c4ccc([N+](=O)[O-])cc4)CC3)c(F)cc2c1=O [Compound 3n, 1-Cyclopropyl-6-fluoro-7-(4-(4-nitrophenylcarbonothioyl)piperazin-1-yl)-4-oxo-1,4-dihydroquinoline-3-carboxylic acid]	–	–	–	2.05 ± 0.03 µM	0.097 µg/mL (≈ 0.195 µM)	1.56 µg/mL (≈ 3.15 µM)	0.781 µg/mL (≈ 1.57 µM)	0.39 µg/mL (≈ 0.785 µM)	–	5.59 ± 2.38 µg/mL (≈ 11.3 µM)	5.72 ± 1.31 µg/mL (≈ 11.5 µM)
